Measurements published in ChEMBL document CHEMBL1159236, “Venezenin: a new bioactive Annonaceous acetogenin from the bark of Xylopia aromatica” (J Nat Prod, 1995).
≈ marks a conversion by molar mass, not a printed value.

Legend:
A549 = assay: Cytotoxicity against human A549 cells after 7 hrs by MTT assay; assay type: functional; conditions: A549, 7 h, read-out: ED50 (the source's name)
MCF7 = assay: Cytotoxicity against human MCF7 cells after 7 hrs by MTT assay; assay type: functional; conditions: for EC50: Homo sapiens, MCF7, 7 h, read-out: ED50 (the source's name)
HT-29 = assay: Cytotoxicity against human HT-29 cells after 7 hrs by MTT assay; assay type: functional; conditions: for EC50: Homo sapiens, HT-29, 7 h, read-out: ED50 (the source's name)
[1] = Toxicity in brine shrimp; assay type: organism-based; conditions: artemia, in vivo
[2] = Inhibition of respiration in rat liver mitochondria assessed per mg of protein; assay type: functional

Structure (SMILES)	EC50 (A549) [µg/mL]	EC50 (MCF7) [µg/mL]	EC50 (HT-29) [µg/mL]	LC50 [1] [µg/mL]	ED50 (MCF7) [×10⁻⁵ ug/ml]	ED50 (HT-29) [×10⁻⁴ ug/ml]	IC50 [2] [µM]
CCCCCCCCCCCC/C=C\CC[C@H]1OC(C)(C)O[C@@H]1CCCCCCC(=O)CCCCC[C@@H](O)CC1=C[C@H](C)OC1=O	< 0.001	0.347 (≈ 0.536 µM)	0.932 (≈ 1.44 µM)	–	–	–	–
CCCCCCCCCCCC/C=C\CC[C@@H](O)[C@H](O)CCCCCCC(O)CCCCC[C@@H](O)CC1=C[C@H](C)OC1=O (stereo partly drawn)	< 0.001	0.0572 (≈ 0.0939 µM)	2.62 (≈ 4.3 µM)	–	–	–	–
CCCCCCCCCCCC[C@H](O)[C@@H]1CC[C@@H]([C@@H](O)CCCCCCC(=O)CCCCC[C@@H](O)CC2=C[C@H](C)OC2=O)O1	0.00786 (≈ 0.0126 µM)	–	–	0.84 (≈ 1.35 µM)	7.47	3.46	1.7
C=C(C)[C@H]1Cc2c(ccc3c2O[C@@H]2COc4cc(OC)c(OC)cc4[C@@H]2C3=O)O1 [ROTENONE]	–	–	–	–	–	–	34
CCCCCCCCCCCC[C@H](O)[C@@H]1CC[C@H]([C@H](O)CCCCCCC(=O)CCCCC[C@@H](O)CC2=C[C@H](C)OC2=O)O1	0.0045 (≈ 0.00722 µM)	0.056 (≈ 0.0899 µM)	0.047 (≈ 0.0755 µM)	0.98 (≈ 1.57 µM)	–	–	–
CCCCCCCCCCCC/C=C\CC[C@@H](O)[C@H](O)CCCCCCC(=O)CCCCC[C@@H](O)CC1=C[C@H](C)OC1=O [VENEZENIN]	0.0108 (≈ 0.0178 µM)	< 0.01	1.58 (≈ 2.6 µM)	9.33 (≈ 15.4 µM)	–	–	–
COc1cccc2c1C(=O)c1c(O)c3c(c(O)c1C2=O)C[C@@](O)(C(=O)CO)C[C@@H]3O[C@H]1C[C@H](N)[C@H](O)[C@H](C)O1 [DOXORUBICIN]	0.0092 (≈ 0.0169 µM)	0.23 (≈ 0.423 µM)	0.0392 (≈ 0.0721 µM)	–	–	–	–
